Results from article PMC9250534, “Synthesis and direct assay of large macrocycle diversities by combinatorial late-stage modification at picomole scale” (Nature Communications, 2022).

Molecular target: MDM2 (Homo sapiens, UniProt Q00987)
Experiment: MDM2 binding screen: displacement of fluorescent p53 peptide probe FP53 (fluorescence polarization)
Details: for fraction fluorescent probe displaced, Screen: initial screen; for fraction fluorescent probe displaced, Screen / fraction fluorescent probe displaced, Replicate: crude macrocycle reactions; for fraction fluorescent probe displaced: crude reaction of macrocycle scaffold with Acid 14
Method in brief: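 Single-point screen: one fluorescence anisotropy reading at 25 °C (485 nm excitation, 535 nm emission) per macrocycle. Crude macrocycle reactions, final 10 µM, were scored for displacing the fluorescent p53 peptide from human MDM2.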

Chain of MDM2 (Q00987 whole entry): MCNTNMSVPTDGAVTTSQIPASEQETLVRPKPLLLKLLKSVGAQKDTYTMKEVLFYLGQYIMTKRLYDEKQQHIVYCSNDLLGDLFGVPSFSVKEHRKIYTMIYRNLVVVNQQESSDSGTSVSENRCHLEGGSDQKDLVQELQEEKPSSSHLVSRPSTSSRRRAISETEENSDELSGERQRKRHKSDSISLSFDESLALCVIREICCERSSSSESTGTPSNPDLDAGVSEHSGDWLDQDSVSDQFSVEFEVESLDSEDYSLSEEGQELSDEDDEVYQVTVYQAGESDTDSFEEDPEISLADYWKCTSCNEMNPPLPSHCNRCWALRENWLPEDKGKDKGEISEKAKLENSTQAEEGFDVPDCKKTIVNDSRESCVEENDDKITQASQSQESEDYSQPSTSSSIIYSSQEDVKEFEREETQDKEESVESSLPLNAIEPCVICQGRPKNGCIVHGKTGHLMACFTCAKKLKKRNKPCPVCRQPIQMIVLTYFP

SMILES	fraction fluorescent probe displaced, Screen (Acid 91)	fraction fluorescent probe displaced, Replicate (Acid 91, replicate)	fraction fluorescent probe displaced, Screen (Acid 25)	fraction fluorescent probe displaced, Replicate (Acid 25, replicate)	further results
O=C1NCCSSCCC(=O)N2CCN(C(=O)c3ccc(Cl)s3)CC2C(=O)N2CCCC2C(=O)NC1Cc1c[nH]c2ccccc12 (centres unmarked) [X D7 B1 W Acid 14]					fraction fluorescent probe displaced, Screen (Acid 14): -0.00483; fraction fluorescent probe displaced, Replicate (Acid 14, replicate): 0.07
O=C1CCNC(=O)C2CN(C(=O)c3ccc(Cl)s3)CCN2C(=O)CCSSCCNC(=O)C(Cc2c[nH]c3ccccc23)N1 (centres unmarked) [X D7 B2 W Acid 14]					fraction fluorescent probe displaced, Screen (Acid 14): 0.11; fraction fluorescent probe displaced, Replicate (Acid 14, replicate): 0.12
O=C1CCNC(=O)C2CN(C(=O)C=Cc3ccccc3)CCN2C(=O)CCSSCCNC(=O)C(Cc2c[nH]c3ccccc23)N1 (centres unmarked) [X D7 B2 W Acid 91]	0.11	0.07			
O=C1NC(Cc2ccccc2)C(=O)NCCSSCCC(=O)N2CCN(C(=O)c3ccc(Cl)s3)CC2C(=O)N2CCCC1C2 (centres unmarked) [X D7 B4 F + Acid 14]					fraction fluorescent probe displaced ((initial screen)): -0.0337; fraction fluorescent probe displaced (replicate): 0.07
O=C1NC(Cc2c[nH]c3ccccc23)C(=O)NCCSSCCC(=O)N2CCN(C(=O)C=Cc3ccccc3)CC2C(=O)N2CCCC1C2 (centres unmarked) [X D7 B4 W Acid 91]	0.08	0.07			
O=C1NC(Cc2ccccc2)C(=O)NCCSSCCC(=O)N2CCN(C(=O)c3ccc(Cl)cc3)CC2C(=O)NCc2cccc1c2 (centres unmarked) [X D7 B5 F Acid 25]			-0.04	0.12	
O=C1NC(Cc2c[nH]c3ccccc23)C(=O)NCCSSCCC(=O)N2CCN(C(=O)c3ccc(Cl)cc3)CC2C(=O)NCc2cccc1c2 (centres unmarked) [X D7 B5 W Acid 25]			0.22	0.20	
O=C1NCCSSCCC(=O)N2CCN(C(=O)c3ccc(Cl)s3)CC2C(=O)NC(Cc2ccccc2)C(=O)N2CCCC1C2 (centres unmarked) [X D7 F B4 + Acid 14]					fraction fluorescent probe displaced ((initial screen)): 0.0241; fraction fluorescent probe displaced (replicate): -0.00432
O=C1CCNC(=O)C(Cc2c[nH]c3ccccc23)NC(=O)C2CN(C(=O)c3ccc(Cl)s3)CCN2C(=O)CCSSCCN1 (centres unmarked) [X D7 W B2 Acid 14]					fraction fluorescent probe displaced, Screen (Acid 14): 0.11; fraction fluorescent probe displaced, Replicate (Acid 14, replicate): 0.10

More lines, main results first:

fraction fluorescent probe displaced, Screen (Acid 91)	fraction fluorescent probe displaced, Replicate (Acid 91, replicate)	fraction fluorescent probe displaced, Screen (Acid 25)	fraction fluorescent probe displaced, Replicate (Acid 25, replicate)	SMILES	further results
		0.09	0.07	O=C1NC(Cc2ccccc2)C(=O)N2CCCC2C(=O)NCCSSCCC(=O)N2CCN(C(=O)c3ccc(Cl)cc3)CC12 (centres unmarked) [X D7 F B1 Acid 25]	
		-0.00813	0.07	O=C1CCNC(=O)C(Cc2ccccc2)NC(=O)C2CN(C(=O)c3ccc(Cl)cc3)CCN2C(=O)CCSSCCN1 (centres unmarked) [X D7 F B2 Acid 25]	
		0.12	0.43	O=C1NCCSSCCC(=O)N2CCN(C(=O)c3ccc(Cl)cc3)CC2C(=O)NC(Cc2ccccc2)C(=O)NCc2cccc1c2 (centres unmarked) [X D7 F B5 Acid 25]	
0.0563	0.04			O=C1NCCSSCCC(=O)N2CCN(C(=O)C=Cc3ccccc3)CC2C(=O)NC(Cc2ccccc2)C(=O)NCc2cccc1c2 (centres unmarked) [X D7 F B5 Acid 91]	
-0.0241	-0.00827			O=C1NC(Cc2c[nH]c3ccccc23)C(=O)N2CCCC2C(=O)NCCSSCCC(=O)N2CCN(C(=O)C=Cc3ccccc3)CC12 (centres unmarked) [X D7 W B1 Acid 91]	
		0.22	0.17	O=C1CCNC(=O)C(Cc2c[nH]c3ccccc23)NC(=O)C2CN(C(=O)c3ccc(Cl)cc3)CCN2C(=O)CCSSCCN1 (centres unmarked) [X D7 W B2 Acid 25]	
0.03	0.04			O=C1NCCSSCCC(=O)N2CCN(C(=O)C=Cc3ccccc3)CC2C(=O)NC(Cc2c[nH]c3ccccc23)C(=O)N2CCCC1C2 (centres unmarked) [X D7 W B4 Acid 91]	
